Data reported in US20200390742A1, “CLINICALLY EFFICACIOUS ANTI-METHANOGENIC COMPOSITIONS AND USES” (Cedars-Sinai Medical Center, priority 2016, published 2020).
Values after ≈ are worked out from the molar mass of the structure shown. Read-outs that look alike come from different tables or passages of the source. Marks after values point to notes of the source that are not given here. Peptide text beside a SMILES is read from it.

Legend:
[1] = tested on: IBS-C patients; conditions: published trial, 12 weeks; drug arm; cited from earlier work
[2] = tested on: M. smithii; test: M. smithii colonized high-fat diet rats, qPCR of bowel segments; assay type: in vivo, Sprague-Dawley rats
Description: The rats were assessed for increased M. smithii by qPCR before and after the diet, and then divided into 3 groups. […] Each group was gavaged daily for 10 days. Three day stool collections were performed to assess average stool wet weight and daily variability prior to commencing the high fat diet, after 7 weeks of high-fat diet, and the final days of the lovastatin gavage (still on high-fat diet). On day 10 of the gavage, rats were euthanized and DNA was extracted from contents of ligated bowel segments (duodenum, jejunum, ileum, cecum and left colon). qPCR was performed using primers for total luminal bacteria and M. smithii.

[3] = cited from earlier work
[4] = cited from earlier work; remark: listed apart in the source
[5] = tested on: human and rat fecal bacterial enzyme fractions; conditions: 12 h incubation; cited from earlier work
[6] = pylorus-ligated rats, within 30 minutes; cited from earlier work
[7] = Binary stress testing of lovastatin with formulation excipients (HPLC); conditions: alone, over a range of conditions
Description: The compatibility of lovastatin drug substance with formulation excipients was evaluated in binary stress testing studies where 1:1 mixtures of lovastatin and each excipient were stored for 7 days under different conditions of temperature and relative humidity (RH). Samples were analyzed by HPLC (based on USP methods) at day 0 and day 7.

[8] = tested on: methane production by stool samples from IBS-C patients; test: Methane production by human stool in vitro; assay type: cell-based
Excerpt: Data are change from baseline (ΔCH4 ppm) in headspace methane. […] Error bars are SD. P values are significance of change from baseline (paired t-test).
The second principle, without wishing to be bound by theory, is to reduce the pre-systemic conversion of lovastatin lactone to the β-hydroxyacid metabolite. […] Conversion of lovastatin lactone to β-hydroxyacid occurs in stomach acid and through the action of plasma, intestinal and liver esterases; some conversion may also be catalysed by intestinal bacteria.
The potential methane-reducing effect of lovastatin lactone concentrations in the stool of healthy volunteers was estimated by comparison of stool concentrations to lovastatin lactone concentrations used to inhibit methane production in stool samples from an IBS-C patient in vitro.

[9] = physchem; conditions: for solubility: Solubility (room temp)
Excerpt: Lovastatin was produced, analyzed and released using methodology known in the art.

[10] = Cecum, 1.5 mg/rat daily for 10 days
[11] = Duodenum, 1.5 mg/rat gavage daily for 10 days
[12] = Jejunum, 1.5 mg/rat daily for 10 days
[13] = Left Colon, 1.5 mg/rat daily for 10 days
[14] = stool samples from IBS-C patients in vitro

## C[C@@H]1NC(=O)[C@@H]2CCCN2C(=O)[C@H](CC(N)=O)NC(=O)[C@@H]2CSSC[C@H](N)C(=O)N[C@H]3CSSC[C@H](NC1=O)C(=O)N[C@@H]([C@@H](C)O)C(=O)NCC(=O)N[C@H](C(=O)N[C@@H](Cc1ccc(O)cc1)C(=O)O)CSSC[C@H](NC(=O)[C@H](Cc1ccc(O)cc1)NC(=O)[C@H](CCC(=O)O)NC3=O)C(=O)N2 [Linaclotide] (HELM PEPTIDE1{C.C.E.Y.C.C.N.P.A.C.T.G.C.Y}$PEPTIDE1,PEPTIDE1,1:R3-6:R3|PEPTIDE1,PEPTIDE1,2:R3-10:R3|PEPTIDE1,PEPTIDE1,5:R3-13:R3$$$V2.0)
[1]
  Abdominal Pain Response, % Subjects: 49.5 (36.0) %
  Bloating Response, % Subjects: 43.2 (26.8) %
  CSBM Response, % Subjects: 48.2 (26.1) %
  Diarrhea Incidence, % Subjects: 19.3 (2.8) %
  Overall Response, % Subjects: 33.6 (17.4) %

## CC[C@H](C)C(=O)O[C@H]1C[C@@H](C)C=C2C=C[C@H](C)[C@H](CC[C@@H]3C[C@@H](O)CC(=O)O3)[C@H]21 [Lovastatin]
[2]; [10]
  M. smithii/Total Bacteria: 0.20
[2]; [11]
  M. smithii/Total Bacteria: 1.30
[2]; Ileum, 1.5 mg/rat daily for 10 days, listed as Lactone
  M. smithii/Total Bacteria: 0.19*
[2]; Ileum, 1.5 mg/rat daily for 10 days, listed as lovastatin lactone
  M. smithii/Total Bacteria: reduced
[2]; [12]
  M. smithii/Total Bacteria: 0.12
[2]; [13]
  M. smithii/Total Bacteria: 0.0029
[3]; human subjects, immediate release dosage form
  absorption of orally-administered dose: ~31%
[4]
  pre-portal hydrolysis in vivo after oral administration: ~10%
[5]
  loss of lovastatin lactone: 8-19%
[6]
  intragastric dose exiting the gastric juice: ~30%
[7]
  stability in binary stress testing: stable
[8]; 0.2 mg/g stool, regression
  inhibition of methane AUC0-270: 85-90%
  methane AUC0-270 as percentage of the control value: 10-15%
[8]; lovastatin lactone 0.04 mg/g stool, human stool in vitro
  reduction of methane production: ~60%
[8]; lovastatin lactone 0.21-0.25 mg/g stool, in vitro
  inhibition of methane production: ~90%
[8]; [14]
  inhibition of methane production: only effective statin inhibitor
[9]
  Solubility (room temp): methanol 28 mg/mL
[9]; organic solvent or mixture
  solubility: 16000 µg/mL (≈ 39.6 mM)
[9]; water
  solubility: 0.4 µg/mL (≈ 0.000989 mM)

## CCCCC(F)(F)[C@@]1(O)CC[C@H]2[C@@H](CC(=O)[C@@H]2CCCCCCC(=O)O)O1 [Lubiprostone]
[1]
  Abdominal Pain Response, % Subjects: 36.7 (25.2) %
  Bloating Response, % Subjects: 32.0 (25.1) %
  Overall Response, % Subjects: 26.3 (15.3) %

## CC(C)C[C@H](NC(=O)[C@@H]1CSSC[C@@H]2NC(=O)[C@H](CC(C)C)NC(=O)[C@H](CCC(=O)O)NC(=O)[C@@H](NC(=O)[C@H](CCC(=O)O)NC(=O)[C@H](CC(=O)O)NC(=O)[C@@H](N)CC(N)=O)CSSC[C@H](NC(=O)[C@H](C)NC(=O)[C@H](C(C)C)NC(=O)[C@H](CC(N)=O)NC(=O)[C@H](C(C)C)NC2=O)C(=O)N[C@@H]([C@@H](C)O)C(=O)NCC(=O)N1)C(=O)O [Plecanatide] (HELM PEPTIDE1{N.D.E.C.E.L.C.V.N.V.A.C.T.G.C.L}$PEPTIDE1,PEPTIDE1,4:R3-12:R3|PEPTIDE1,PEPTIDE1,7:R3-15:R3$$$V2.0)
[1]
  Diarrhea Incidence, % Subjects: 4.3 (1.0) %
  Overall Response, % Subjects: 25.7 (15.9) %

## CN1Cc2c(Cl)cc(Cl)cc2[C@H](c2cccc(S(=O)(=O)NCCOCCOCCNC(=O)NCCCCNC(=O)NCCOCCOCCNS(=O)(=O)c3cccc([C@@H]4CN(C)Cc5c(Cl)cc(Cl)cc54)c3)c2)C1 [Tenapanor]
[1]
  Abdominal Pain Response, % Subjects: 65.5 (48.3) %
  Bloating Response, % Subjects: 59.5 (41.6) %
  CSBM Response, % Subjects: 60.7 (33.7) %
  Diarrhea Incidence, % Subjects: 11.2 (0.0) %
  Overall Response, % Subjects: 50.0 (23.6) %

## CC(C)c1c(C(=O)Nc2ccccc2)c(-c2ccccc2)c(-c2ccc(F)cc2)n1CC[C@@H](O)C[C@@H](O)CC(=O)O [atorvastatin]
[8]; [14]
  inhibition of methane production: ineffective

## CC[C@H](C)C(=O)O[C@H]1C[C@@H](C)C=C2C=C[C@H](C)[C@H](CC[C@@H](O)C[C@@H](O)CC(=O)O)[C@H]21 [lovastatin β-hydroxyacid]
[2]; [10]
  M. smithii/Total Bacteria: 0.14
[2]; [11]
  M. smithii/Total Bacteria: 1.41
[2]; [12]
  M. smithii/Total Bacteria: 0.29
[2]; [13]
  M. smithii/Total Bacteria: 0.0024
[3]; human, in vivo, po
  absorption of orally-administered dose: 82-100%
[6]
  intragastric dose exiting the gastric juice: ~30%
[8]; [14]
  inhibition of methane production: ineffective

## CC(C)c1nc(N(C)S(C)(=O)=O)nc(-c2ccc(F)cc2)c1/C=C/[C@@H](O)C[C@@H](O)CC(=O)O [rosuvastatin]
[8]; [14]
  inhibition of methane production: ineffective
